Tests used:
[1] = system: vascular intimal thickening after aorta transplantation; details: rat; 3 mg/mL in drinking water (Non-patent literature 2); cited from earlier work
[2] = system: Vanin-1; test: In vivo measurement of Vanin-1 inhibitory activity in sera and kidney tissues using hamsters; set-up: species or system Syrian hamsters; details: hamster, 10 mg/kg subcutaneous injection; for Vanin-1 activity in kidney tissue extracts 1 hour after administration / Vanin-1 activity in kidney tissue extracts 4 hours after administration: kidney tissue extract; for Vanin-1 activity in kidney tissue extracts 1 hour after administration: 1 hour (FIG. 5b); for Vanin-1 activity in kidney tissue extracts 4 hours after administration: 4 hours (FIG. 5b); for Vanin-1 activity in sera 1 hour after administration / Vanin-1 activity in sera 4 hours after administration: serum; for Vanin-1 activity in sera 1 hour after administration: 1 hour (FIG. 5a); for Vanin-1 activity in sera 4 hours after administration: 4 hours (FIG. 5a)
Procedure: The pantotheine ketone derivatives obtained in Example 1 and Comparative Example 1 were used as a Vanin-1 inhibitor to measure Vanin-1 inhibitory activity in vivo as follows.
An assay buffer and substrate were the same as those used in the in vitro measurement of activity described above. Hamsters used were 6-week-old male Syrian hamsters purchased from Japan SLC.
The pantotheine ketone derivatives of Example 1 and Comparative Example 1 at a dose of 10 mg/kg were each administered by subcutaneous injection in the backs of different hamsters, and 1 hour and 4 hours after the administration, blood collection and kidney removal were performed under anesthesia. The blood and kidney of the normal hamsters were indicated as Normal. The blood was refrigerated overnight at 4° C. and then centrifuged at 3000 rpm for 20 minutes at 4° C., and the supernatant was used as serum. The kidney was homogenized in an assay buffer in an amount 10 times the tissue weight, and centrifuged at 8000 rpm for 30 minutes at 4° C., and the supernatant was used as a kidney tissue extract. Proteins in the kidney tissue were quantified by using a BCA protein assay (Thermo Fishers Scientific).
Vanin-1 inhibitory activity was measured in accordance with the following steps 1 to 7 of: • 1. introducing 80 μL of assay buffer in a 96-well black plate, • 2. adding 10 μL of serum or kidney tissue extract to the wells containing the assay buffer, • 3. adding 10 μL of 1 mM Pantothenate-AMC to the wells from the step [2.], • 4. measuring at Ex=390 nm and Ex=465 nm before incubation, • 5. incubating at 37° C. for 30 minutes, • 6. measuring at Ex=390 nm and Ex=465 nm, • 7. subtracting fluorescence after 0 minute incubation, from fluorescence value after 30 minutes incubation, and calculating enzyme unit (U) using as an index the amount of AMC produced per minute with respect to the fluorescence value of 40 μM AMC as a reference. The Vanin-1 activity in the kidney tissue extracts was further calculated to normalize by the protein concentration. (Results)

[3] = target: T1, Vanin-1 (Homo sapiens, UniProt O95497); test: In vitro measurement of Vanin-1 inhibitory activity, screening using human serum with Pantothenate-AMC substrate; assay type: biochemical; details: for IC50: 37° C., 30 minutes incubation, Pantothenate-AMC; for Vanin-1 inhibitory activity relative to that of Comparative Example 1: ratio to Comparative Example 1
T1 construct: For use as human serum, “normal human serum” was purchased from KOHJIN BIO (product number: 12181211); tissue KOHJIN BIO 12181211; host or cells: normal human serum
T1 sequence (O95497 22-491): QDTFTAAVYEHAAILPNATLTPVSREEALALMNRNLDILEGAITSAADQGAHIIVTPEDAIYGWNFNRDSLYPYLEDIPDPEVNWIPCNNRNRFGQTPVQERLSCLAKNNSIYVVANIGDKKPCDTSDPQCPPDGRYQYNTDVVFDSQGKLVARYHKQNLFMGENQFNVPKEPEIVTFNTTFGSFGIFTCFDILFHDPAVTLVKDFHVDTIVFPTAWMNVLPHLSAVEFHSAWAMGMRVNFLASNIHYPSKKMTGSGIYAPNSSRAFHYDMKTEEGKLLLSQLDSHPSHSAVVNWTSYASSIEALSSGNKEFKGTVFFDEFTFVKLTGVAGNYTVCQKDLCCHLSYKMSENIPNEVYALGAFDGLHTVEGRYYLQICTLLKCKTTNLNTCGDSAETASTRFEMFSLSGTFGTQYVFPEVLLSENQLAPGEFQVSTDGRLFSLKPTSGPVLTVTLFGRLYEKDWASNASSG
Procedure: The pantotheine ketone derivatives obtained in Examples 1 to 5 and Comparative Examples 1 to 9 were used as a Vanin-1 inhibitor to measure Vanin-1 inhibitory activity in vitro as follows.
A 9 g/package phosphate buffer powder (1/15 molL^−1=66 mM, Wako Pure Chemical) was dissolved in 1 L of distilled water to produce an assay buffer. Pantothenate-AMC serving as a substrate was synthesized according to protocols as described in Analytical Biochemistry 2010; 399: 284-292. For use as human serum, “normal human serum” was purchased from KOHJIN BIO (product number: 12181211).
Vanin-1 inhibitory activity was measured in accordance with the following steps 1 to 8 of: • 1. introducing 79 μL of assay buffer in a 96-well black plate, • 2. adding 10 μL of human serum to the wells containing the assay buffer, • 3. adding 1 μL of each Vanin-1 inhibitor (10^−7 M to 10^−2 M in DMSO) or 1 μL of DMSO to the wells from the step [2.], • 4. adding 10 μL of 1 mM Pantothenate-AMC to the wells from the step [3.], • 5. measuring at Ex=390 nm and Ex=465 nm before incubation, • 6. incubating at 37° C. for 30 minutes, • 7. measuring at Ex=390 nm and Ex=465 nm, • 8. subtracting fluorescence after 0 minute incubation, from fluorescence after 30 minutes incubation, to express Vanin-1 inhibitory activity of each inhibitor in percent with respect to that of DMSO being 100%. (Results)

| SMILES | Effect on vascular intimal thickening after aorta transplantation [1] | Vanin-1 activity in kidney tissue extracts 1 hour after administration [2] | Vanin-1 activity in kidney tissue extracts 4 hours after administration [2] | Vanin-1 activity in sera 1 hour after administration [2] | Vanin-1 activity in sera 4 hours after administration [2] | IC50 [3] | Vanin-1 inhibitory activity in vitro (comparison in words, FIGS. 1 to 4) [3] | Vanin-1 inhibitory activity relative to that of Comparative Example 1 [3] |
| --- | --- | --- | --- | --- | --- | --- | --- | --- |
| CC(C)(CO)[C@@H](O)C(=O)NCCC(=O)Cc1ccccc1 [Comparative Example 1, reference compound] | suppressive effect on vascular intimal thickening | same as the normal value | same as the normal value | suppressed | returned to normal value | 780 nM |  |  |
| CC(C)(CO)[C@@H](O)C(=O)NCCC(=O)Cc1ccc2ccccc2c1 [Comparative Example 6] |  |  |  |  |  |  | lower than that of Comparative Example 1 |  |
| CC(C)(CO)[C@@H](O)C(=O)NCCC(=O)Cc1cccc2ccccc12 [Comparative Example 7] |  |  |  |  |  |  | lower than that of Comparative Example 1 |  |
| C/C(O)=C/C(=O)CCNC(=O)[C@H](O)C(C)(C)CO [Comparative Example 8] |  |  |  |  |  |  | lower than that of Comparative Example 1 |  |
| C=C=CC(=O)CCNC(=O)[C@H](O)C(C)(C)CO [Comparative Example 9] |  |  |  |  |  |  | lower than that of Comparative Example 1 |  |
| CC(C)(CO)[C@@H](O)C(=O)NCCC(=O)Cc1ccc(OC(F)(F)F)cc1 [Example 1, (R)-2,4-dihydroxy-3,3-dimethyl-N-[3-oxo-4-(4-trifluoromethoxyphenyl)butyl]butanamide] |  | able to inhibit Vanin-1 | returned to the normal value | suppressed Vanin-1 activity lower than that of Comparative Example 1 | suppressed below the normal value | 35 nM | very high Vanin-1 inhibitory activity | about 20 times |
| CC(C)(CO)[C@@H](O)C(=O)NCCC(=O)Cc1ccc(F)cc1 [Example 2] |  |  |  |  |  | 120 nM | very high Vanin-1 inhibitory activity | about 6 times |

Reference: patent US12128016B2, “Vanin-1 inhibitor” (EDUCATIONAL FOUNDATION OF OSAKA MEDICAL AND PHARMACEUTICAL …, priority 2021, dated 2024)
